From US20080009418A1, “Selective Inhibitors” (Alchemia LTD., priority 2004, published 2008)

Legend:
[1] = target: T1, Human neurokinin (NK1) (Homo sapiens, UniProt P25103); assay: Radioligand binding, human neurokinin NK1 membranes, filtration, [125I]-Substance P; conditions: compound at 10 μM; [125I]-Substance P, filtration
T1 construct: purchased Perkin Elmer Biosignal
Summary of the method: (§1)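 Percent inhibition of radioligand binding measured on recombinant human membranes: NK1 with [125I]-Substance P, KOP with [3H]-Diprenorphine. Incubation 1 h at room temperature, then harvest onto 0.3% PEI-soaked filters, cold Tris-HCl pH 7.4 washes and scintillation counting; non-specific binding from reference ligand wells.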

[2] = target: T2, Human neuropeptide Y (NPY-Y1) (Homo sapiens, UniProt P25929); assay: Radioligand binding, human neuropeptide Y NPY-Y1 membranes, FlashPlate, [125I]-PYY; conditions: compound at 10 μM; [125I]-PYY, FlashPlate
T2 construct: purchased Perkin Elmer Biosignal
T2 sequence (P25929 1-384): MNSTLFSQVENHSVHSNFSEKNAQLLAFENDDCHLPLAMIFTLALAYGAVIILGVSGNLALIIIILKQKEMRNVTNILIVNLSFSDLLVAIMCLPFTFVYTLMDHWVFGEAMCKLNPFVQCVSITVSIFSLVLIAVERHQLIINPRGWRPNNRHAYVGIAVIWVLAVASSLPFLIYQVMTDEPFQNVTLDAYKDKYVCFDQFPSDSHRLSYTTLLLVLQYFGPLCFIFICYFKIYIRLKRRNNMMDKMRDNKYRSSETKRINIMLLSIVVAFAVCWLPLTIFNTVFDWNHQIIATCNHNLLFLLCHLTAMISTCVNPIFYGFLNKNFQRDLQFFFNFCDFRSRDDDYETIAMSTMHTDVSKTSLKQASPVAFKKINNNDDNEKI
Summary of the method: (§2)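 Cloned human receptor membranes were coated onto FlashPlate wells and incubated with radioligand and compound (added from a 0.5 mM DMSO daughter plate) for 1 hour at room temperature in the dark. Scintillation counting gave percent inhibition, with DMSO defining total and reference ligand defining non-specific binding.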

[3] = target: T3, Human μ-opioid (MOP) (Homo sapiens, UniProt P35372); assay: Radioligand binding, human μ-opioid (MOP) membranes, FlashPlate, [3H]-Naloxone; conditions: compound at 10 μM; [3H]-Naloxone, FlashPlate
T3 construct: purchased Perkin Elmer Biosignal
Summary of the method: as §2

[4] = target: T4, Human κ-Opioid (KOP) (Homo sapiens, UniProt P41145); assay: Radioligand binding, human κ-opioid (KOP) membranes, filtration, [3H]-Diprenorphine; conditions: compound at 10 μM; [3H]-Diprenorphine, filtration
T4 construct: purchased Perkin Elmer Biosignal
Summary of the method: as §1

[5] = target: T5, Human melanocortin (MC5) (Homo sapiens, UniProt P33032); assay: Radioligand binding, human melanocortin MC5 membranes, FlashPlate, [125I]-NDP-αMSH; conditions: compound at 10 μM; [125I]-NDP-αMSH, FlashPlate
T5 construct: purchased Perkin Elmer Biosignal
Summary of the method: as §2

[6] = target: T6, Human melanin-concentrating hormone (MCH1) (Homo sapiens, UniProt Q99705); assay: Radioligand binding, human melanin-concentrating hormone MCH1 membranes, FlashPlate, [125I]-S36057; conditions: compound at 10 μM; [125I]-S36057, FlashPlate
T6 construct: purchased Perkin Elmer Biosignal
Summary of the method: as §2

[7] = target: T7, Human opioid (ORL1) (Homo sapiens, UniProt P41146); assay: Radioligand binding, human opioid ORL1 membranes, FlashPlate, [125I]-Nociceptin; conditions: compound at 10 μM; [125I]-Nociceptin, FlashPlate
T7 construct: purchased Perkin Elmer Biosignal
Summary of the method: as §2

[8] = target: T8, Human Melanocortin (MC3) (Homo sapiens, UniProt P41968); assay: Radioligand binding, human melanocortin MC3 membranes, FlashPlate, [125I]-NDP-αMSH; conditions: compound at 10 μM; [125I]-NDP-αMSH, FlashPlate
T8 construct: purchased Perkin Elmer Biosignal
Summary of the method: as §2

[9] = target: T9, Human δ-opioid (DOP) (Homo sapiens, UniProt P41143); assay: Radioligand binding, human δ-opioid (DOP) membranes, FlashPlate, [3H]-Bremazocine; conditions: compound at 10 μM; [3H]-Bremazocine, FlashPlate
T9 construct: purchased Perkin Elmer Biosignal
Summary of the method: as §2

[10] = target: T10, Human Melanocortin (MC4) (Homo sapiens, UniProt P32245); assay: Radioligand binding, human melanocortin MC4 membranes, FlashPlate, [125I]-NDP-αMSH; conditions: compound at 10 μM; [125I]-NDP-αMSH, FlashPlate
T10 construct: purchased Perkin Elmer Biosignal
Summary of the method: as §2

[11] = target: T11, Mouse urotensin (mUR2) (Mus musculus, UniProt Q8VIH9); assay: Radioligand binding, mouse urotensin mUR2 membranes, FlashPlate, [125I]-Urotensin II; conditions: compound at 10 μM; [125I]-Urotensin II, FlashPlate
T11 construct: purchased Perkin Elmer Biosignal
T11 sequence (Q8VIH9 1-385): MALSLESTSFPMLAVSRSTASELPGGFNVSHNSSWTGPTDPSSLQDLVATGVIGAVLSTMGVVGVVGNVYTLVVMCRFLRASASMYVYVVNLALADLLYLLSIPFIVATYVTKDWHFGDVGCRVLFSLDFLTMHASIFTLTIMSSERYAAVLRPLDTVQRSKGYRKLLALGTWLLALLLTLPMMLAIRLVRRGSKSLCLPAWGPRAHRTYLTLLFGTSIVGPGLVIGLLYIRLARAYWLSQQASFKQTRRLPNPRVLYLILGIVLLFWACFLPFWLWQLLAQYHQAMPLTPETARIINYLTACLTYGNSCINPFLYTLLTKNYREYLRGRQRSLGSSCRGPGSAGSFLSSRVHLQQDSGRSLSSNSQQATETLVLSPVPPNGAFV
Summary of the method: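 Cloned mouse urotensin (mUR2) receptor membranes from Perkin Elmer Biosignal were immobilized in FlashPlate microplates using a proprietary coating. Each well got 19.5 μl buffer, then 0.5 μl of DMSO, reference ligand, or compound. Adding 5 μl of [125I]-Urotensin II, diluted to 5× final concentration in binding buffer, started binding. Plates were sealed with TopSeal-A and incubated 1 hour at room temperature in the dark. Wells were counted for 30 seconds each on a TopCount after a 60-second delay, and percentage inhibition was calculated.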

T7 sequence (P41146 whole entry): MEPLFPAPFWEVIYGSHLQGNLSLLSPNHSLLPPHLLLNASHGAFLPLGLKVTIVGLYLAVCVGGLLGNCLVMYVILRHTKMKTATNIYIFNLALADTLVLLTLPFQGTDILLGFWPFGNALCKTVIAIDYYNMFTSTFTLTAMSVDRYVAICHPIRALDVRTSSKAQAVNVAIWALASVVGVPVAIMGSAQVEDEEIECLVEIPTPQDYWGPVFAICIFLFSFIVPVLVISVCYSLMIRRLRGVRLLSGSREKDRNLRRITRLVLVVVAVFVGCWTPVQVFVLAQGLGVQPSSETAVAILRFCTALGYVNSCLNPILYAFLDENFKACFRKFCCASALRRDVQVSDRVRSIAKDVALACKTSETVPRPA
T9 sequence (P41143 whole entry): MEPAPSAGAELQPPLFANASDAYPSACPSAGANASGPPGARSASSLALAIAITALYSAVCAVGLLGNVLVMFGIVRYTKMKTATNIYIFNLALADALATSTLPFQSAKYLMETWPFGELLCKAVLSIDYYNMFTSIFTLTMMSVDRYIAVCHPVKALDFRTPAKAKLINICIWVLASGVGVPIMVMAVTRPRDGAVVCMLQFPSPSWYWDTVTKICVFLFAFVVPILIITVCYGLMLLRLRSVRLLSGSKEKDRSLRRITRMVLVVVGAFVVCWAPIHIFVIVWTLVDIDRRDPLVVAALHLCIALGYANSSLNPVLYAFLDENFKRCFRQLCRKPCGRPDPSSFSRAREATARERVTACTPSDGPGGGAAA
T4 sequence (P41145 whole entry): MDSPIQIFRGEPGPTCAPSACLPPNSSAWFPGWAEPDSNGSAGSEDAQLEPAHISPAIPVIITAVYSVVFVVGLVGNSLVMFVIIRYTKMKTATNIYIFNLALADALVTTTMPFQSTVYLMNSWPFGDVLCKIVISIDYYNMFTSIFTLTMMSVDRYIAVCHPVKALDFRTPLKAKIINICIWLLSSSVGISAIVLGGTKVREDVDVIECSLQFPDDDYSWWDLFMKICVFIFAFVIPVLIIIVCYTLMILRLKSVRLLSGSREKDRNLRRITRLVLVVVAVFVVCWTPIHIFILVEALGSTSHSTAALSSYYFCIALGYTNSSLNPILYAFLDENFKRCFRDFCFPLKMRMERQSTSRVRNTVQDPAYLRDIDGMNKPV
T10 sequence (P32245 whole entry): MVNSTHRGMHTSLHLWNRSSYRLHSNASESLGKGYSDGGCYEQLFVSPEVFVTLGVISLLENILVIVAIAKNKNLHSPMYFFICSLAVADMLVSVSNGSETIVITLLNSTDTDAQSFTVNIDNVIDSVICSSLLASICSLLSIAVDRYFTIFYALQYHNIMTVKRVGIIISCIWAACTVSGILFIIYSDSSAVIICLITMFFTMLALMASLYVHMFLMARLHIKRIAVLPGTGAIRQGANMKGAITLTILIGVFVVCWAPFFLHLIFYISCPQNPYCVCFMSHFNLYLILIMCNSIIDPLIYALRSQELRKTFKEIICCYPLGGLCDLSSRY
T5 sequence (P33032 whole entry): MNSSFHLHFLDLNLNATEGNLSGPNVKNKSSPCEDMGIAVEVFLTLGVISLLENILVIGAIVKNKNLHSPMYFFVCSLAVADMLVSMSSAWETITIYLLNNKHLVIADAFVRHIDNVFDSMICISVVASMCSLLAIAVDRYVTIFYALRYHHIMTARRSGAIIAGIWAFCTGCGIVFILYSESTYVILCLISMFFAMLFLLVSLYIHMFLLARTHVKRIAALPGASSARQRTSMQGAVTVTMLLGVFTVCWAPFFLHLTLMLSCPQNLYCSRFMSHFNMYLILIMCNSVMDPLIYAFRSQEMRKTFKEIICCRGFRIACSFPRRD
T8 sequence (P41968 whole entry): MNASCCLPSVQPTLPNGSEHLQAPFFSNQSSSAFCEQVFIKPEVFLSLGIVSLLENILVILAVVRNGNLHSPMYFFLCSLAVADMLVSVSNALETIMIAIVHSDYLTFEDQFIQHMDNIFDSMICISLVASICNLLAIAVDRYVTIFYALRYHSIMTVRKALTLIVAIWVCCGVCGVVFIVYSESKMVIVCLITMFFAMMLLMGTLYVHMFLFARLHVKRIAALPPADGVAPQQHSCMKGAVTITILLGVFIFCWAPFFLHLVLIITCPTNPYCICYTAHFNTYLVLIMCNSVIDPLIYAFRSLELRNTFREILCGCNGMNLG
T6 sequence (Q99705 whole entry): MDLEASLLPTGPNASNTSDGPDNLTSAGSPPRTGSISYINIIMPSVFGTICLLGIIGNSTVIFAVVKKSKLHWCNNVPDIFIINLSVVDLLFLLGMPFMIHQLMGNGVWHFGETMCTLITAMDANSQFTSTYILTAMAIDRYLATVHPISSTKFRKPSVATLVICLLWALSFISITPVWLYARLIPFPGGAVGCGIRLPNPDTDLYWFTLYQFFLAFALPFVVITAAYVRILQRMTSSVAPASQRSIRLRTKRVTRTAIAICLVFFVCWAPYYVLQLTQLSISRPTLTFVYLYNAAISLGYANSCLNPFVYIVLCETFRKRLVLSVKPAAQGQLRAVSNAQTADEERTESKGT
T3 sequence (P35372 whole entry): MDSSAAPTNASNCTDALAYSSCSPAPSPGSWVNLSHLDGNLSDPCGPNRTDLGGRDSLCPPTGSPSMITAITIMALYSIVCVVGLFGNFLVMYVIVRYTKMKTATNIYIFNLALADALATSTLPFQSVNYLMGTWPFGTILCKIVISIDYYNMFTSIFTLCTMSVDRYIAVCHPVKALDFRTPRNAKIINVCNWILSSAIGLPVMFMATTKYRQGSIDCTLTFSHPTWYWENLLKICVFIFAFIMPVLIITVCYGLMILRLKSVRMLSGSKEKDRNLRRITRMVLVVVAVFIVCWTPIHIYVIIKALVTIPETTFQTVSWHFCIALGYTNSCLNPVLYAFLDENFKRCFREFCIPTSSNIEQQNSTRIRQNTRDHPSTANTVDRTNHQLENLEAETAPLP
T1 sequence (P25103 whole entry): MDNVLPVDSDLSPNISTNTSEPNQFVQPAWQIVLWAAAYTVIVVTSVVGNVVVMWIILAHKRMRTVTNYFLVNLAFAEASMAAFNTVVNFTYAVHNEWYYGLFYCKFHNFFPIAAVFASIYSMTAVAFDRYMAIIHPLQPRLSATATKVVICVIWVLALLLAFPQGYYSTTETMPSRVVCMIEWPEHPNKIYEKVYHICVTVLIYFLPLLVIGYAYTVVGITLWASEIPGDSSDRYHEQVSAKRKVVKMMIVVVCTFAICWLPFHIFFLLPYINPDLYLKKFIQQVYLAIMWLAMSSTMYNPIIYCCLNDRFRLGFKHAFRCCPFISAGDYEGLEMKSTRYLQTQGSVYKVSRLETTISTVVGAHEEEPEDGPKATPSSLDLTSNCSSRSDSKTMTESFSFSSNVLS

| Compound | A8: inhibition of radioligand binding [1] | A9: inhibition of radioligand binding [2] | A7: inhibition of radioligand binding [3] | A2: inhibition of radioligand binding [4] | A5: inhibition of radioligand binding [5] | A6: inhibition of radioligand binding [6] | A10: inhibition of radioligand binding [7] | A3: inhibition of radioligand binding [8] | A1: inhibition of radioligand binding [9] | A4: inhibition of radioligand binding [10] | A11: inhibition of radioligand binding [11] |
| --- | --- | --- | --- | --- | --- | --- | --- | --- | --- | --- | --- |
| CSC1O[C@H](COCc2ccc(-c3ccccc3)cc2)[C@@H](O)[C@@H](OCc2ccc(Cl)cc2)[C@H]1NC(=O)CCCNC(=N)N (stereo partly shown) [compound 279] | + (“+” indicates greater than 50% inhibition at 10 μM) | − (“−” indicates less than 50% inhibition at 10 μM) | − (“−” indicates less than 50% inhibition at 10 μM) | − (“−” indicates less than 50% inhibition at 10 μM) | + (“+” indicates greater than 50% inhibition at 10 μM) | − (“−” indicates less than 50% inhibition at 10 μM) | − (“−” indicates less than 50% inhibition at 10 μM) | − (“−” indicates less than 50% inhibition at 10 μM) | − (“−” indicates less than 50% inhibition at 10 μM) | − (“−” indicates less than 50% inhibition at 10 μM) | − (“−” indicates less than 50% inhibition at 10 μM) |
| CSC1O[C@H](COCc2ccc3ccccc3c2)[C@@H](O)[C@@H](OCc2ccc(Cl)cc2)[C@H]1NC(=O)CN (stereo partly shown) [compound 280] | + (“+” indicates greater than 50% inhibition at 10 μM) | − (“−” indicates less than 50% inhibition at 10 μM) | − (“−” indicates less than 50% inhibition at 10 μM) | − (“−” indicates less than 50% inhibition at 10 μM) | − (“−” indicates less than 50% inhibition at 10 μM) | − (“−” indicates less than 50% inhibition at 10 μM) | − (“−” indicates less than 50% inhibition at 10 μM) | − (“−” indicates less than 50% inhibition at 10 μM) | − (“−” indicates less than 50% inhibition at 10 μM) | − (“−” indicates less than 50% inhibition at 10 μM) | − (“−” indicates less than 50% inhibition at 10 μM) |
| CSC1O[C@H](COCc2ccc3ccccc3c2)[C@@H](O)[C@@H](OCc2ccc(Cl)cc2)[C@H]1NC(=O)CNC(=N)N (stereo partly shown) [compound 281] | + (“+” indicates greater than 50% inhibition at 10 μM) | − (“−” indicates less than 50% inhibition at 10 μM) | − (“−” indicates less than 50% inhibition at 10 μM) | − (“−” indicates less than 50% inhibition at 10 μM) | + (“+” indicates greater than 50% inhibition at 10 μM) | − (“−” indicates less than 50% inhibition at 10 μM) | − (“−” indicates less than 50% inhibition at 10 μM) | + (“+” indicates greater than 50% inhibition at 10 μM) | − (“−” indicates less than 50% inhibition at 10 μM) | + (“+” indicates greater than 50% inhibition at 10 μM) | − (“−” indicates less than 50% inhibition at 10 μM) |
| CSC1O[C@H](COCc2ccc3ccccc3c2)[C@@H](O)[C@@H](OCc2ccc(Cl)cc2)[C@H]1NC(=O)CCN (stereo partly shown) [compound 282] | + (“+” indicates greater than 50% inhibition at 10 μM) | − (“−” indicates less than 50% inhibition at 10 μM) | − (“−” indicates less than 50% inhibition at 10 μM) | − (“−” indicates less than 50% inhibition at 10 μM) | − (“−” indicates less than 50% inhibition at 10 μM) | − (“−” indicates less than 50% inhibition at 10 μM) | − (“−” indicates less than 50% inhibition at 10 μM) | − (“−” indicates less than 50% inhibition at 10 μM) | − (“−” indicates less than 50% inhibition at 10 μM) | + (“+” indicates greater than 50% inhibition at 10 μM) | − (“−” indicates less than 50% inhibition at 10 μM) |
| CSC1O[C@H](COCc2ccc3ccccc3c2)[C@@H](O)[C@@H](OCc2ccc(Cl)cc2)[C@H]1NC(=O)CCNC(=N)N (stereo partly shown) [compound 283] | + (“+” indicates greater than 50% inhibition at 10 μM) | − (“−” indicates less than 50% inhibition at 10 μM) | − (“−” indicates less than 50% inhibition at 10 μM) | − (“−” indicates less than 50% inhibition at 10 μM) | + (“+” indicates greater than 50% inhibition at 10 μM) | − (“−” indicates less than 50% inhibition at 10 μM) | − (“−” indicates less than 50% inhibition at 10 μM) | − (“−” indicates less than 50% inhibition at 10 μM) | − (“−” indicates less than 50% inhibition at 10 μM) | + (“+” indicates greater than 50% inhibition at 10 μM) | − (“−” indicates less than 50% inhibition at 10 μM) |
